Measurements: US20210253518A1, “KINASE INHIBITOR” (NISSAN CHEMICAL CORPORATION, priority 2018, published 2021)

Tested on: YAP (phospho-S127 and total)
Test: YAP phosphorylation inhibitory action in SKOV3 cells (HTRF, YAP-total kit / YAP phospho-S127 kit)
Format: cell-based, human
Details: 10 μM, 1 hr, Non-treatment as 100%
Procedure: Human ovarian cancer cell line SKOV3 (manufactured by DS Pharma Biomedical Co., Ltd) was precultured (single layer culture) in a 15% FBS-containing McCoy's 5a medium (manufactured by Sigma Ltd. Aldrich). The above-mentioned cells in the logarithmic growth phase were washed with PBS, a 0.25% (w/v) trypsin-1 mmol/L ethylenediaminetetraacetic acid (EDTA) solution (manufactured by Fujifilm Wako Pure Chemical Corporation) was added, and adherent cells were detached by incubating at 37° C. for 3 min. The above-mentioned medium was added and the mixture was centrifuged and resuspended in the same medium.
According to the method of patent document (WO 2014/017513), a composition of 10% FBS-containing DMEM medium (Phenol-red free, manufactured by FUJIFILM Wako Pure Chemical Corporation) containing 0.015% (w/v) deacylated gellan gum (KELCOGEL CG-LA, manufactured by SANSHO Co., Ltd.) was prepared using FCeM-series Preparation Kit (manufactured by FUJIFILM Wako Pure Chemical Corporation). Then, various cells prepared above were suspended in the above-mentioned medium composition (3D conditions) added with deacylated gellan gum or a medium without the addition (2D conditions), and seeded on a 50 μL/well (manufactured by Corning Incorporated, 96 well flat bottom plate, #3585, 2D conditions) or 25 μL/well (manufactured by Corning Incorporated, 96 well low adhesion flat bottom plate, #3474) at 100000 cells/well. The plate was allowed to stand at 37° C. in a 5% CO2 incubator, and the compound of the present invention diluted with the medium at 2 or 6 times the final concentration, DMSO, or the medium alone was added to the plate 3 hr after the seeding at 50 μL/well (2D conditions) or 5 μL/well (3D conditions) to make the final concentration of each compound 10 μM. After culture at 37° C. in a 5% CO2 incubator for 1 hr, the supernatant was aspirated, supplemented Lysis buffer (1-fold concentration, manufactured by Cisbio, YAP-total kit or YAP phospho-S127 kit) (50 μL) was added under 2D conditions, and supplemented Lysys buffer (4-fold concentration) (10 μL) was added to the culture supernatant under 3D conditions, and the mixture was stirred by a plate shaker for 30 min. Thereafter, the plate was centrifuged, 16 μL of the supernatant was transferred to a 384-well white plate (Corning, #4512), and each antibody solution (pYAP d2 antibody or Total-YAP d2 antibody, and pYAP Cryptate antibody or Total-YAP Cryptate antibody) included in the kit was added at 4 μL/well in total, and the mixture was allowed to stand at room temperature overnight. As a blank control, pYAP Cryptate antibody or Total-YAP Cryptate antibody alone was added to cells free of stimulation with compound and the mixture was treated in the same manner (Non-treatment). The next day, the wavelengths at 665 nm and 615 nm were measured in the HTRF mode of EnVision (manufactured by PerkinElmer).
The obtained signal was calculated as follows. Ratio=signal (665 nm)/signal (615 nm)×10000, ΔR=Signal(Ratio)−Background fluorescence, and the relative value with respect to ΔR of the compound non-addition group (Non-treatment) as 100% was calculated, and the phosphorylated YAP amount or total YAP amount by each compound was evaluated.

SMILES: CC/C(=N\NC(=O)C(C)Nc1ccccc1)c1ccc(O)c(C)c1O (stereo not drawn) [k-1:B-1]
- phosphorylated YAP (%) (2D condition): 14%
- total YAP (%) (2D condition): 89%
- phosphorylated YAP (%) (3D condition): 31%
- total YAP (%) (3D condition): 99%

SMILES: CCC(=NNC(=O)CNc1ccccc1)c1ccc(O)c(C)c1O [k-1:H-1]
- phosphorylated YAP (%) (2D condition): 38%
- total YAP (%) (2D condition): 94%
- phosphorylated YAP (%) (3D condition): 80%
- total YAP (%) (3D condition): 107%

SMILES: CC/C(=N\NC(=O)NCc1cccc(O)c1)c1ccc(O)c(C)c1O [k-1:J-1]
- phosphorylated YAP (%) (2D condition): 13%
- total YAP (%) (2D condition): 86%
- phosphorylated YAP (%) (3D condition): 30%
- total YAP (%) (3D condition): 109%
